The target of one assay is T1, Caspase-3 (Homo sapiens, UniProt P42574).
T1 construct: the Caspase-2 and Caspase-3 are human recombinant active enzymes; purchased R&D Systems 707-C3-010/CF
T1 sequence (P42574 29-175 limits assumed): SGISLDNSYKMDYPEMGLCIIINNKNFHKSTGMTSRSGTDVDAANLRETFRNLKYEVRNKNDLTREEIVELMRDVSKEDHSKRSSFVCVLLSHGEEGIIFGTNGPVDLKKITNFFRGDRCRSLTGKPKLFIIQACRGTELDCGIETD
T1 sequence (P42574 176-277 limits assumed): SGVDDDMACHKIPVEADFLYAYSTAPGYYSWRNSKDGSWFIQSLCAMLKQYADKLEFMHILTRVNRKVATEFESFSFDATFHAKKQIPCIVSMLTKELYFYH
Briefly: Caspase-3 inhibition assay (in vitro), kinact/KI by continuous method. Type of assay: biochemical. To be noted: human recombinant Caspase-3 0.5 nM, substrate Ac-DEVD-AMC, 37° C.; read-out: Inactivation constant kinact/KI Caspase-3 (converted). The source says:
(§1) The efficiency of the compound 2 of the invention to inhibit Caspase-2 and Caspase-3 has been evaluated by using the below explained protocol.
(§2) The efficiency of the comparative compound Δ2Me-TRP601, that is an already known group II Caspase inhibitor (inhibitor of Caspase-2, Caspase-3 and Caspase-7), has been assessed by a similar protocol described in Chauvier et al., 2011 Cell Death Dis 2011, 2:e203.
In this example, the Caspase-2 and Caspase-3 are human recombinant active enzymes that are respectively provided by Enzo Life® (ALX-201-057-U100) and R&D Systems® (707-C3-010/CF). […]
The peptide substrates used for the enzymatic activity measurements are Ac-DEVD-AMC and Ac-VDVAD-AMC commercialized by EnzoLife® (respectively referenced ALX-260-031-M005 and ALX-260-060-M005). […] The releasing of AMC enables to follow the enzymatic activity in fluorescence unit RFU over time in a 96-wells microplate (COSTAR 3915).
The fluorescence values are measured at 37° C. with a spectrofluorometer with a microplate reader BMG FLUOstar OPTIMA. […]
The inhibitory properties of the tested compounds are evaluated by the determination of the kinact/KI ratio regarding either Caspase-2 or Caspase-3 wherein: • kinact is the maximal inactivation rate constant, and • KI is the dissociation constant according to: […]
(§3) The activities of the enzyme are measured between 45 and 60 minutes. […]

Another assay has as its target T2, Caspase-2 (Homo sapiens, UniProt P42575).
T2 construct: the Caspase-2 and Caspase-3 are human recombinant active enzymes; purchased Enzo Life ALX-201-057-U100
T2 sequence (P42575 170-325 limits assumed): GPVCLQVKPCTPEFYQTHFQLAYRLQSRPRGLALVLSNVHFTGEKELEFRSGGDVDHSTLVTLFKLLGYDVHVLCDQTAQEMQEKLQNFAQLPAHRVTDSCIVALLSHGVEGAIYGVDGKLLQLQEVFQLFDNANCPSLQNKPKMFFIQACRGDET
T2 sequence (P42575 348-452 limits assumed): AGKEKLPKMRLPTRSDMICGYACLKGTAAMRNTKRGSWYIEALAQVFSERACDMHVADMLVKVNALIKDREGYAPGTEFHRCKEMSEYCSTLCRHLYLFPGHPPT
Briefly: Caspase-2 inhibition assay (in vitro), kinact/KI by continuous method. Type of assay: biochemical. The settings on record: for kinact/KI: human recombinant Caspase-2 0.1 nM, substrate Ac-VDVAD-AMC, 37° C., read-out: Inactivation constant kinact/KI Caspase-2 (converted); for times more efficient to inactivate Caspase-2 than to inactivate Caspase-3 (selectivity): ratio of kinact/KI Caspase-2 versus Caspase-3.
Text: as §1, §2
In this example, the Caspase-2 and Caspase-3 are human recombinant active enzymes that are respectively provided by Enzo Life® (ALX-201-057-U100) and R&D Systems® (707-C3-010/CF).
Caspase-2 is used at a final concentration of 0.1 nM in a “Caspase-2 buffer” containing 20 mM HEPES (pH 7.4), 5 mM DTT, 2 mM EDTA, 0.1% CHAPS and 800 mM succinate. Caspase-3 is used at a final concentration of 0.5 nM in a “Caspase-3 buffer” containing 20 mM HEPES (pH 7.4), 0.1% CHAPS, 5 mM DTT, and 2 mM EDTA.
The peptide substrates used for the enzymatic activity measurements are Ac-DEVD-AMC and Ac-VDVAD-AMC commercialized by EnzoLife® (respectively referenced ALX-260-031-M005 and ALX-260-060-M005). They are fluorogenic due to the presence of their AMC (7-amino-4-methylcoumarin) end group. The releasing of AMC enables to follow the enzymatic activity in fluorescence unit RFU over time in a 96-wells microplate (COSTAR 3915).
The fluorescence values are measured at 37° C. with a spectrofluorometer with a microplate reader BMG FLUOstar OPTIMA. This apparatus is driven by the software Biolise® and is equipped with thermoelectric cooling device by Peltier effect. The mathematic analysis of the experimental data are done with the software Kaleidagraph@.
The inhibitory properties of the tested compounds are evaluated by the determination of the kinact/KI ratio regarding either Caspase-2 or Caspase-3 wherein: • kinact is the maximal inactivation rate constant, and • KI is the dissociation constant according to:
Said ratio is measured according to the continuous method (Allison R D. Curr Protoc Protein Sci. 2001 May; Chapter 3:Unit 3.5.; Chauvier et al., 2011 Cell Death Dis 2:e203; Tan et al., J Med Chem 2015, […]).
Briefly, Caspases activities were determined by monitoring the hydrolysis of fluorogenic substrates (λexc=355 nm, λem=460 nm) as a function of time, in the presence of untreated Caspases (control) or Caspases that had been incubated with a test compound, for 30 min minimum at 37° C. using a BMG Fluostar microplate reader (black 96-well microplates) and the initial velocity (V0) was determined from the linear portion of the progress curve.
Substrates and compounds were previously dissolved in DMSO at 10 mM, with the final solvent concentration kept at lower 4% (v/v). V0, relative velocities, KM and IC50 were determined from experimental datas using Mars datas Analysis 2.0 and Kaleidagraph softwares.
Inhibitor binding affinity (dissociation constant, KI) and first-order rate constant (k3) parameters were determined for Caspase-2 and Caspase-3 using the progress curve method. The ratio k3/KI was obtained by fitting the experimental data to the equations (F.U., fluorescence unit): […]
A continuous method of determination of the kinact/KI ratio was used for evaluating the inhibitory activity of the tested compounds against Caspase-2 and Caspase-3.
The reaction mixture is prepared by letting the enzyme and the buffer incubate at 37° C. […]
as §3

In a further assay the test system is HeLa cells. Briefly: Protection against cellular death induced by vincristine, propidium iodide flow cytometry. The settings on record: compound at 3, 10, 30 and 60 μM added 1 hour before 20 nM vincristine, 48 hours. Type of assay: cell-based, human. The method, then: In this example, the protective effect of the compound 2 of the invention against cellular death induced by vincristine (a vinca alkaloid) is tested using a well-known flow cytometry cell death assay based on propidium iodide staining.
To evaluate the protecting effect of compound 2, a Caspase-dependent cellular model is used.
Human HeLa cells are used in this model. HeLa cells (cervical cancer cell line) were obtained from American Type Cell Collection (ATCC), and were cultured in Dulbecco's Modified Eagle Medium (DMEM, High Glucose, GlutaMAX™, Pyruvate) (Gibco, Life technologies), supplemented with 10% FCS and antibiotics (Gibco, Life technologies).
Human HeLa cells are treated with Vincristine (Sigma Aldrich) solubilized in water at 5 mM. Vincristine works partly by binding to the tubulin protein, stopping the cell from separating its chromosomes during the metaphase; the cell then undergoes apoptosis.
Propidium iodide (PI) (Sigma Aldrich) is used to evaluate plasma membrane permeabilisation, a sign of cell death. […]
The cells are then analyzed by flow cytometry with an excitation of 561 nm.
Fluorescence-Activated Cell Sorting was performed using a FACSCalibur cytometer (Becton Dickinson, San Jose, Calif.). For each sample, data from 5,000 Cells were registered and analyzed with the CellQuest Pro™ software (Becton Dickinson). […]
For orientation: A flow cytometer gives signals particle by particle.

Residues, ends and D or L forms follow the SMILES beside them. *: point of attachment. X1 = O=C(O)C[C@H](N*)C(=O)COc1c(F)cccc1F; Quinaldoyl = O=C(c1ccc2ccccc2n1)*

Consider `CC(C)[C@H](NC(=O)c1ccc2ccccc2n1)C(=O)N[C@@H](CC(=O)O)C(=O)N[C@H](C(=O)N[C@@H](C)C(=O)N[C@@H](CC(=O)O)C(=O)COc1c(F)cccc1F)C(C)C` [Δ2Me-TRP-601, reference compound] (Quinaldoyl-VDVA-X1), for which the kinact/KI on Caspase-3 is 1.92e+06 M⁻¹ s⁻¹. Further, at Caspase-2, the kinact/KI is 1.57e+06 M⁻¹ s⁻¹ and the “times more efficient to inactivate Caspase-2 than to inactivate Caspase-3 (selectivity)” value is reported as “does not exhibit this selectivity”.

For the compound `Cc1ccc2c(c1)CCN(C(=O)[C@@H](NC(=O)[C@H](CC(=O)O)NC(=O)[C@@H](NC(=O)c1ccc3ccccc3n1)C(C)C)C(C)C)[C@@H]2C(=O)N[C@@H](CC(=O)O)C(=O)COc1c(F)cccc1F` [Compound 2, (S)-3-((S)-2-((S)-2-((S)-3-carboxy-2-((S)-3-methyl-2-(quinoline-2-carboxamido)butanamido)propanamido)-3-methylbutanoyl)-6-methyl-1,2,3,4-tetrahydroisoquinoline-1-carboxamido)-5-(2,6-difluorophenoxy)-4-oxopentanoic acid], the “protection of cells against apoptotic death induced by vincristine (percentage of propidium iodide positive cells)” value in the assay with HeLa cells is listed as “protects the cells against apoptotic death induced by vincristine in a dose-dependent manner”. Besides, the kinact/KI on Caspase-3 is 30500 M⁻¹ s⁻¹. The “efficiency to inhibit Caspase-2 (in words)” value on Caspase-2 (compared with Δ2Me-TRP601) is “as efficient as Δ2Me-TRP601 to inhibit Caspase-2”. For the same compound, at Caspase-2, the kinact/KI was 1.76e+06 M⁻¹ s⁻¹ and the “times more efficient to inactivate Caspase-2 than to inactivate Caspase-3 (selectivity)” value came out at 57 times.

Source of the values: patent US10961219B2, “Derivatives and their use as selective inhibitors of caspase-2” (priority 2016, dated 2021).
